In patent publication US10336762B2 (priority 2017, dated 2019):

Experiments:
TNFα = experiment: cells; format: cell-based, human; conditions: Homo sapiens, Monocyte, LPS-stimulated human monocytes, TNFα by TR-FRET; read-out: EC50 TNF
IRAK4 enzyme = IRAK4 enzyme (Homo sapiens (Human), UniProt Q9NWZ3); experiment: biochemical; format: biochemical; conditions: IRAK4 enzyme, TR-FRET, 500 μM ATP
IRAK4 enzyme, sequence (Q9NWZ3 whole entry): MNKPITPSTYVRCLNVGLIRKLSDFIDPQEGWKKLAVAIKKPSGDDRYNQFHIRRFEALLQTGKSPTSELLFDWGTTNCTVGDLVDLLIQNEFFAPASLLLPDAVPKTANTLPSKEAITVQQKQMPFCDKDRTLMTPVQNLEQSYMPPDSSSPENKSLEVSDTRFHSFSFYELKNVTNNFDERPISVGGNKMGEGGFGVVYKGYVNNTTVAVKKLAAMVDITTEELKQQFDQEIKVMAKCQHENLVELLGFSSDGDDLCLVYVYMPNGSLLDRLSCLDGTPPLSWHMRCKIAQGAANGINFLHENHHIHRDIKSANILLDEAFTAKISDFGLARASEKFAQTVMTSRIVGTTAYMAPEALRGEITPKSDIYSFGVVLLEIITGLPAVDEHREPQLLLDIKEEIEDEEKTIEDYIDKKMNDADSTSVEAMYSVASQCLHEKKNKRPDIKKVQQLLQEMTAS

Work on CC(C)(O)[C@H](F)CNC(=O)c1cnc(-c2ccc3cc(C#N)cnn23)cc1Nc1ccn2nccc2c1 [Example 975, (R)-6-(3-cyanopyrrolo[1,2-b]pyridazin-7-yl)-N-(2-fluoro-3-hydroxy-3-methyl-butyl)-4-(pyrazolo[1,5-a]pyridin-5-ylamino) nicotinamide] yielded an EC50 (TNFα) of 67 nM and an IC50 (IRAK4 enzyme) of under 1 nM.
